Data taken from publication PMC8416565 (Oncotarget, 2021).

Biological target: T1, MAP2K7 (Homo sapiens, UniProt O14733)
T1 construct: purified human MAP2K7 (Origene)
T1 sequence (O14733 2-419): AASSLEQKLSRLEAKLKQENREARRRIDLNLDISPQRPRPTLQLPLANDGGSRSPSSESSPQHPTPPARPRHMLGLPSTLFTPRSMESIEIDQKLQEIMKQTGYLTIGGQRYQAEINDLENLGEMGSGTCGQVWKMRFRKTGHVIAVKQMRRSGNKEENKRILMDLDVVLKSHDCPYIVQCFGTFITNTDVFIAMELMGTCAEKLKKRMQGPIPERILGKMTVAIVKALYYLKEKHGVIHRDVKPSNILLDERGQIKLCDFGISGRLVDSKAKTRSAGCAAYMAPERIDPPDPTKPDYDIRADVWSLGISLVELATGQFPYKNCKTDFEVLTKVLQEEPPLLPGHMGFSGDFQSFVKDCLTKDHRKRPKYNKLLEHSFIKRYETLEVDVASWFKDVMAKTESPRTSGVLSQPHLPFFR
Assay: in vitro kinase assay (Kinase-Glo Plus / ADP-Glo), dead JNK2 substrate, 30-min preincubation
Type: biochemical

- IC50: 1200 nM
Structure (SMILES): COc1cc(O)c2c(c1)/C=C/C[C@H](O)[C@H](O)C(=O)/C=C\C[C@H](C)OC2=O [5Z7O, 5Z-7-oxozeaenol]
